test system: RAW264.7; experiment: Anti-inflammatory activity in mouse RAW264.7 cells assessed as inhibition of lipopolysaccharide-induced nitric oxide production; type: functional, cell-based

SMILES | IC50
C=C[C@]1(C)C=C2CC[C@H]3C(C)(C)[C@H](O)C[C@H](O)[C@]3(C)[C@H]2[C@H](O)C1 | 28.1 µM
C=C[C@]1(C)C=C2CC[C@H]3C(C)(C)C[C@H](O)[C@H](O)[C@]3(C)[C@H]2CC1 | 40.3 µM
C=C[C@]1(C)C=C2CC[C@H]3C(C)(C)C[C@H](O)[C@H](OC(C)=O)[C@]3(C)[C@H]2CC1 | > 50 µM
C=C[C@]1(C)C=C2C(=O)C[C@H]3C(C)(C)CC[C@H](O)[C@]3(C)[C@H]2CC1 | > 50 µM
C=C[C@]1(C)C=C2C(=O)C[C@H]3C(C)(C)C[C@H](O)C[C@]3(C)[C@H]2CC1 | > 50 µM
C=C[C@]1(C)C=C2[C@H](O)C[C@H]3C(C)(C)CC[C@H](O)[C@]3(C)[C@H]2[C@H](O)C1 | > 50 µM
C[C@@H]1C[C@H]2[C@@H]3CCC4=CC(=O)C=C[C@]4(C)[C@@]3(F)[C@@H](O)C[C@]2(C)[C@@]1(O)C(=O)CO [DEXAMETHASONE] | 5.5 µM
C=C[C@]1(C)C=C2C[C@@H](OC(C)=O)[C@H]3C(C)(C)[C@@H](O)CC(=O)[C@]3(C)[C@H]2[C@@H](O)C1 | > 50 µM
C=C[C@]1(C)C=C2CC[C@H]3C(C)(C)CC[C@H](O)[C@]3(C)[C@H]2[C@H](O)C1 | 36.7 µM
C=C[C@]1(C)C=C2[C@@H](O)C[C@H]3C(C)(C)C[C@H](O)[C@H](O)[C@]3(C)[C@H]2CC1 | > 50 µM
C=C[C@]1(C)C=C2CC[C@H]3C(C)(C)CC[C@H](O)[C@]3(C)[C@H]2CC1 | 50 µM
C=C[C@]1(C)C=C2CC[C@H]3C(C)(C)[C@@H](O)C[C@H](O)[C@]3(C)[C@H]2[C@H](O)C1 | > 50 µM
C=C[C@]1(C)C=C2C[C@@H](O)[C@H]3C(C)(C)C[C@H](O)[C@H](O)[C@]3(C)[C@H]2CC1 | > 50 µM

test system: RAW264.7; experiment: Cytotoxicity against mouse RAW264.7 cells; type: cell-based

SMILES | Activity
C=C[C@]1(C)C=C2CC[C@H]3C(C)(C)[C@H](O)C[C@H](O)[C@]3(C)[C@H]2[C@H](O)C1 | Non-Toxic

— ChEMBL document CHEMBL4342446, “Isopimarane Diterpenoids from the Rhizomes of Kaempferia marginata and Their Potential Anti-inflammatory Activities” (J Nat Prod, 2020)
